# Measured values as given in patent US4388235A, “Synthesis of peptides” (Armour Pharmaceutical Company, priority 1982, dated 1983).
# Positions of bridges follow the written chain, without caps; N, C: chain ends. Residues, ends and D or L forms follow the SMILES beside them.
# Assay: biological potency assay of the purified product (MRC units)
# Format: in vivo
# Details: freeze-dried product of Example 1
smiles,measurement,value
"CC(C)C[C@H](NC(=O)[C@H](CCCCN)NC(=O)CNC(=O)[C@H](CC(C)C)NC(=O)[C@@H](NC(=O)[C@@H]1CSSC[C@H](N)C(=O)N[C@@H](CO)C(=O)N[C@@H](CC(N)=O)C(=O)N[C@@H](CC(C)C)C(=O)N[C@@H](CO)C(=O)N[C@@H]([C@@H](C)O)C(=O)N1)C(C)C)C(=O)N[C@@H](CO)C(=O)N[C@@H](CCC(N)=O)C(=O)N[C@@H](CCC(=O)O)C(=O)N[C@@H](Cc1c[nH]cn1)C(=O)N[C@@H](CCCCN)C(=O)N[C@@H](CC(C)C)C(=O)N[C@@H](CCC(N)=O)C(=O)N[C@H](C(=O)N[C@@H](Cc1ccc(O)cc1)C(=O)N1CCC[C@H]1C(=O)N[C@@H](CCCNC(=N)N)C(=O)N[C@H](C(=O)N[C@@H](CC(N)=O)C(=O)N[C@H](C(=O)NCC(=O)N[C@@H](CO)C(=O)NCC(=O)N[C@H](C(=O)N1CCC[C@H]1C(N)=O)[C@@H](C)O)[C@@H](C)O)[C@@H](C)O)[C@@H](C)O [des Leu^16 -SCT, Des-Leu^16 -salmon calcitonin] (H-CSNLSTCVLGKLSQEHKLQTYPRTNTGSGTP-NH2; disulfide 1-7)",assayed potency,580 MRC units per mg
